Results from patent EP4745137A1 (Gluetacs Therapeutics (Shanghai) Co., Ltd., priority 2023, dated 2025).
pIC50: −log10 of the molar value.

Experiments:
MGC803 = experiment: Tumor cell proliferation inhibition (CellTiter-Meiluncell Luminescent Cell Viability Assay), MGC803; details: Homo sapiens, MGC-803, 96 h, read-out: inhibitory activity (IC50, nM) against tumor cells proliferation, MGC803
IKZF3 = biological target: T1, IKZF3 (Homo sapiens, UniProt Q96SW2+Q9UKT9); experiment: Western-blot assay of substrate protein degradation in hPBMCs, IKZF3; format: cell-based; details: 24 hours of compound treatment, compounds tested at 50 nM and 500 nM (concentration of the table not stated)
T1 construct: endogenous in cells; host or cells: hPBMCs (Milecell Biotechnologies)

CCRF-CEM = experiment: Tumor cell proliferation inhibition (CellTiter-Meiluncell Luminescent Cell Viability Assay), CCRF-CEM; details: Homo sapiens, 96 h, read-out: inhibitory activity (IC50, nM) against tumor cells proliferation, CCRF-CEM
Experimental: (§1) The tumor cells used herein were cultured in a cell culture medium listed in table 2 at 37°C in an incubator with 5% CO2. Prior to experimentation, all cell lines used were correctly identified by STR profiling, and tested negative for mycoplasma contamination using a mycoplasma detection kit through routine screenings.
(§2) On the following day, the test compounds of the present disclosure were subjected to serial dilution. […] Subsequently, 0.5 µL of the test compound dilution was transferred into the 96-well plate containing the cells, with each well containing 100 µL of cell culture medium. […] Into the 96-well plate, the diluted test compounds and corresponding detection reagents were added, resulting in final test compound concentrations of 500 nM and 10 nM, respectively. The experimental procedure is described below using the diluted 2 µM test compound as an example.
(§3) After the cells were treated with the compounds of the present disclosure for a specified period (the treatment durations were shown in Table 3), the cell viability assay reagent was added to the culture medium according to the kit's instructions to determine cell viability. […] All controls were treated using the same procedure as the compounds of the present disclosure. The growth inhibition curves for the compounds of the present disclosure were plotted using Prism GraphPad software, and the IC50 values were calculated therefrom.

IKZF1 = biological target: T2, IKZF1 (Homo sapiens, UniProt Q13422+Q96SW2); experiment: Western-blot assay of substrate protein degradation in hPBMCs, IKZF1; format: cell-based; details: 24 hours of compound treatment, compounds tested at 50 nM and 500 nM (concentration of the table not stated)
T2 construct: endogenous in cells; host or cells: hPBMCs (Milecell Biotechnologies)

Jurkat = experiment: Tumor cell proliferation inhibition (CellTiter-Meiluncell Luminescent Cell Viability Assay), Jurkat; details: Homo sapiens, 96 h, read-out: inhibitory activity (IC50, nM) against tumor cells proliferation, Jurkat
WEE1 = biological target: T3, WEE1 (Homo sapiens, UniProt P30291+Q96SW2); experiment: Western-blot assay of substrate protein degradation in hPBMCs, WEE1; format: cell-based; details: 24 hours of compound treatment, compounds tested at 50 nM and 500 nM (concentration of the table not stated)
T3 construct: endogenous in cells; host or cells: hPBMCs (Milecell Biotechnologies)

IKZF2 = biological target: T4, IKZF2 (Homo sapiens, UniProt Q96SW2+Q9UKS7); experiment: Western-blot assay of substrate protein degradation in hPBMCs, IKZF2; format: cell-based; details: 24 hours of compound treatment, compounds tested at 50 nM and 500 nM (concentration of the table not stated)
T4 construct: endogenous in cells; host or cells: hPBMCs (Milecell Biotechnologies)

[1] = biological target: T5, human Cereblon WT GST-tagged protein (Homo sapiens, UniProt Q96SW2); experiment: CRBN-binding affinity by HTRF (CEREBLON BINDING kit); details: HTRF inhibitory activity, CEREBLON BINDING kit; read-out: HTRF IC50
T5 construct: purchased CISBIO 64BDCRBNPEH

Vcap = experiment: Tumor cell proliferation inhibition (CellTiter-Meiluncell Luminescent Cell Viability Assay), Vcap; details: Homo sapiens, 96 h, read-out: inhibitory activity (IC50, nM) against tumor cells proliferation, Vcap
CAL-62 = experiment: Tumor cell proliferation inhibition (CellTiter-Meiluncell Luminescent Cell Viability Assay), CAL-62; details: Homo sapiens, CAL-62, 96 h, read-out: inhibitory activity (IC50, nM) against tumor cells proliferation, CAL-62
CK1α = biological target: T6, CK1α (Homo sapiens, UniProt P48729+Q96SW2); experiment: Western-blot assay of substrate protein degradation in hPBMCs, CK1α; format: cell-based; details: 24 hours of compound treatment, compounds tested at 50 nM and 500 nM (concentration of the table not stated)
T6 construct: endogenous in cells; host or cells: hPBMCs (Milecell Biotechnologies)

TMD8 = experiment: Tumor cell proliferation inhibition (CellTiter-Meiluncell Luminescent Cell Viability Assay), TMD8; details: Homo sapiens, TMD8, 96 h, read-out: inhibitory activity (IC50, nM) against tumor cells proliferation, TMD8
GSPT1 = biological target: T7, GSPT1 (Homo sapiens, UniProt P15170+Q96SW2); experiment: Western-blot assay of substrate protein degradation in hPBMCs, GSPT1; format: cell-based; details: 24 hours of compound treatment, compounds tested at 50 nM and 500 nM (concentration of the table not stated)
T7 construct: endogenous in cells; host or cells: hPBMCs (Milecell Biotechnologies)

SW620 = experiment: Tumor cell proliferation inhibition (CellTiter-Meiluncell Luminescent Cell Viability Assay), SW620; details: Homo sapiens, SW-620, 96 h, read-out: inhibitory activity (IC50, nM) against tumor cells proliferation, SW620
Experimental: as §1, §2, §3

[2] = tested on: Human acute T lymphocytic leukemia cells (Molt-4); experiment: Tumor cell proliferation inhibition (CellTiter-Meiluncell Luminescent Cell Viability Assay), Molt-4; details: MOLT-4, 96 h, read-out: inhibitory activity (IC50, nM) against tumor cells proliferation, Molt 4
MM.1R = experiment: Tumor cell proliferation inhibition (CellTiter-Meiluncell Luminescent Cell Viability Assay), MM.1R; details: Homo sapiens, 96 h, read-out: inhibitory activity (IC50, nM) against tumor cells proliferation, MM.1R
SR = experiment: Tumor cell proliferation inhibition (CellTiter-Meiluncell Luminescent Cell Viability Assay), SR; details: Homo sapiens, 96 h, read-out: inhibitory activity (IC50, nM) against tumor cells proliferation, SR
NCI-H1975 = experiment: Tumor cell proliferation inhibition (CellTiter-Meiluncell Luminescent Cell Viability Assay), NCI-H1975; details: Homo sapiens, NCI-H1975, 96 h, read-out: inhibitory activity (IC50, nM) against tumor cells proliferation, H1975
[3] = tested on: Human breast cancer cells (MDA-MB-231); experiment: Tumor cell proliferation inhibition (CellTiter-Meiluncell Luminescent Cell Viability Assay), MDA-MB-231; details: MDA-MB-231, 96 h, read-out: inhibitory activity (IC50, nM) against tumor cells proliferation, MDA-MB-231

T6 sequence (P48729 whole entry): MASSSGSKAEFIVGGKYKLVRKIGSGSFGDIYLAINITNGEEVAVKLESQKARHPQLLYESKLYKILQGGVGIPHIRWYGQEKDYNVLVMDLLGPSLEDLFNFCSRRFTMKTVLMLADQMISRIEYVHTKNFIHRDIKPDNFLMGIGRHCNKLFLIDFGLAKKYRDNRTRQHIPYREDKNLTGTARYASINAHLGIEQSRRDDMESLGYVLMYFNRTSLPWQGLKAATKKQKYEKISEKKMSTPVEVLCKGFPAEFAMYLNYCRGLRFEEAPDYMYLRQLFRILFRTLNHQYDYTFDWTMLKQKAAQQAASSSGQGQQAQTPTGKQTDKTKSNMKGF
T6 sequence (Q96SW2 whole entry): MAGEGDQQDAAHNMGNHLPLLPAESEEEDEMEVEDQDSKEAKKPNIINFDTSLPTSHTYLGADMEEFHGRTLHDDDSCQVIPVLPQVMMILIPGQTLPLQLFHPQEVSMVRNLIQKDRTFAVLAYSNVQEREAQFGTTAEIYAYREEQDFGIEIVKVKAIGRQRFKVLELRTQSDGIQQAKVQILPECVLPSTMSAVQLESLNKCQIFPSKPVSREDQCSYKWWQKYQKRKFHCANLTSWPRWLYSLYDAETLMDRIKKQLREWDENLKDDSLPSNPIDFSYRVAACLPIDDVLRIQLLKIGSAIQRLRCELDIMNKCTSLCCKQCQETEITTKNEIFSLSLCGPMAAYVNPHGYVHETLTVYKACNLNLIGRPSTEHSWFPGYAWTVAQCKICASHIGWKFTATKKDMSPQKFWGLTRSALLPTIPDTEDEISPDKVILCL
T6 sequence (Q16531 whole entry partner): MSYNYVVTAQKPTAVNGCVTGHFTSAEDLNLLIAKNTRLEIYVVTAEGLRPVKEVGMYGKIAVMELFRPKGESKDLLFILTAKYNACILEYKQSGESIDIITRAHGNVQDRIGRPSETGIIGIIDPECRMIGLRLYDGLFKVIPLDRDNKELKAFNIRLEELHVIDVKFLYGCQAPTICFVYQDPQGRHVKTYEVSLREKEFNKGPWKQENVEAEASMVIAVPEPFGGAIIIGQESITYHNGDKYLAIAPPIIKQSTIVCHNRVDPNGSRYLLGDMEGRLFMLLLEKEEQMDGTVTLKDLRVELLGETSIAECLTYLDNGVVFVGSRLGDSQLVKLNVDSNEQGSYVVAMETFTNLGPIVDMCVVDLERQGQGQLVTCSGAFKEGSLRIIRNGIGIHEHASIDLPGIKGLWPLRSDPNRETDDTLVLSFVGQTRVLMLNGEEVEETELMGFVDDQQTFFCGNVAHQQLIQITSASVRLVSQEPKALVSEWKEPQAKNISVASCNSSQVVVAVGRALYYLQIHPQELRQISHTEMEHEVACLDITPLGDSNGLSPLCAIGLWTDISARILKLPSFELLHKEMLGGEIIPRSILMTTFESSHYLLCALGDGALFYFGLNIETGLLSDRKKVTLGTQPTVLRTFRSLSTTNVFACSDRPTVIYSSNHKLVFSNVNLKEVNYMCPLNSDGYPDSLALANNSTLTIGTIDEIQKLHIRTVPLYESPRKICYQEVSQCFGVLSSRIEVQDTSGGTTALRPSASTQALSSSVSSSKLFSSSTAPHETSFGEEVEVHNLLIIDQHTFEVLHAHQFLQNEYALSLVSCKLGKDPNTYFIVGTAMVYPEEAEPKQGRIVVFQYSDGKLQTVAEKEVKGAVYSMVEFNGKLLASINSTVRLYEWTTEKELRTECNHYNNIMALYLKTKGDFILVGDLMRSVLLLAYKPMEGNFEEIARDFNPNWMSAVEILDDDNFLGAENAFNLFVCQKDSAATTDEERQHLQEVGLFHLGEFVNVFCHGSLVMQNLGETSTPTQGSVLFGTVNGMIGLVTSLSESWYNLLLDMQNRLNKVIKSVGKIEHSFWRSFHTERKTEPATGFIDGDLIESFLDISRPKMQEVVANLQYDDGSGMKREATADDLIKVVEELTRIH
T1 sequence (Q9UKT9 whole entry): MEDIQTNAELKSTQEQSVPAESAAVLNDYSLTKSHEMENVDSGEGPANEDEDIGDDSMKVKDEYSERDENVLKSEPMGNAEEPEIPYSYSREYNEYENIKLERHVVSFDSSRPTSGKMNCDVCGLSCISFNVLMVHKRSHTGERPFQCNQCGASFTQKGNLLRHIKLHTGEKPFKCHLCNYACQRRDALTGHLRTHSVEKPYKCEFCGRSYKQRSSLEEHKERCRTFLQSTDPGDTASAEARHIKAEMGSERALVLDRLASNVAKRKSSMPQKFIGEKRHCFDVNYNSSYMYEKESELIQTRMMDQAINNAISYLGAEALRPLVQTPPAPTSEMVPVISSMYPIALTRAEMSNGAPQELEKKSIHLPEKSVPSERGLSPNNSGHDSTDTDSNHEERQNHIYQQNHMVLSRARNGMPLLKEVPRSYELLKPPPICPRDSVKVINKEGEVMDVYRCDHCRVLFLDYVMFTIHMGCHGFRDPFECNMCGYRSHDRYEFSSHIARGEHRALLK
T1 sequence (Q96SW2 whole entry): as the sequence (Q96SW2 whole entry) above
T1 sequence (Q16531 whole entry partner): as the sequence (Q16531 whole entry partner) above
T2 sequence (Q13422 whole entry): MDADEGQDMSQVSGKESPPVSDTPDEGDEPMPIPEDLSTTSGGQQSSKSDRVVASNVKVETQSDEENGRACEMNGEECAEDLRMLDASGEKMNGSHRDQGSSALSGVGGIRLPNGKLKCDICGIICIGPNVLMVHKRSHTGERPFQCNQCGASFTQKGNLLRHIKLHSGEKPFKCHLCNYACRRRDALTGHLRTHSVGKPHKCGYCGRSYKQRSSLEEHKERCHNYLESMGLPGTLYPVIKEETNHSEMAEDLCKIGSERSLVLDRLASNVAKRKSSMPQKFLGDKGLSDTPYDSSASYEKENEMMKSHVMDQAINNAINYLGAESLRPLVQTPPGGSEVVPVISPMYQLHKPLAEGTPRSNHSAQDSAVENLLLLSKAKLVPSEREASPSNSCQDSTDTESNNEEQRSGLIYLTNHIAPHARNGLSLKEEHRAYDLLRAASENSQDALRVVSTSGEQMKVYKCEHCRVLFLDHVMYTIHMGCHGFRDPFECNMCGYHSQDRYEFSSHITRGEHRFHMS
T2 sequence (Q96SW2 whole entry): as the sequence (Q96SW2 whole entry) above
T2 sequence (Q16531 whole entry partner): as the sequence (Q16531 whole entry partner) above
T3 sequence (P30291 whole entry): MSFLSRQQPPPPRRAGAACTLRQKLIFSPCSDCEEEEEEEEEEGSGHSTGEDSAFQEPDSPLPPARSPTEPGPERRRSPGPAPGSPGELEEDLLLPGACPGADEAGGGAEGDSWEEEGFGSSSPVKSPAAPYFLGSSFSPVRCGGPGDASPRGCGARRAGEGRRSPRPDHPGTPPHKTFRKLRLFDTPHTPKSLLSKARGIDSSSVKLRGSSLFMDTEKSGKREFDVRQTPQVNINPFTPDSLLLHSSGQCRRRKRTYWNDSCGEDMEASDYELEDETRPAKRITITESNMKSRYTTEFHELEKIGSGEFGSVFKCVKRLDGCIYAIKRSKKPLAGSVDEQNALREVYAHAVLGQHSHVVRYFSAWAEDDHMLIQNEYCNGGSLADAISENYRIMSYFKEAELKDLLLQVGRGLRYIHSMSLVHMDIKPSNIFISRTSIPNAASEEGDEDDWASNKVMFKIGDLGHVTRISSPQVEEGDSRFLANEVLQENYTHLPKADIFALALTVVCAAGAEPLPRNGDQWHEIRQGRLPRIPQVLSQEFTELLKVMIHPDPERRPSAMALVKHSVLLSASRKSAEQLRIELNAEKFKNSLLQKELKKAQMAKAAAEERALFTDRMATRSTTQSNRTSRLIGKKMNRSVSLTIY
T3 sequence (Q96SW2 whole entry): as the sequence (Q96SW2 whole entry) above
T3 sequence (Q16531 whole entry partner): as the sequence (Q16531 whole entry partner) above
T5 sequence (Q96SW2 whole entry): as the sequence (Q96SW2 whole entry) above
T7 sequence (P15170 whole entry): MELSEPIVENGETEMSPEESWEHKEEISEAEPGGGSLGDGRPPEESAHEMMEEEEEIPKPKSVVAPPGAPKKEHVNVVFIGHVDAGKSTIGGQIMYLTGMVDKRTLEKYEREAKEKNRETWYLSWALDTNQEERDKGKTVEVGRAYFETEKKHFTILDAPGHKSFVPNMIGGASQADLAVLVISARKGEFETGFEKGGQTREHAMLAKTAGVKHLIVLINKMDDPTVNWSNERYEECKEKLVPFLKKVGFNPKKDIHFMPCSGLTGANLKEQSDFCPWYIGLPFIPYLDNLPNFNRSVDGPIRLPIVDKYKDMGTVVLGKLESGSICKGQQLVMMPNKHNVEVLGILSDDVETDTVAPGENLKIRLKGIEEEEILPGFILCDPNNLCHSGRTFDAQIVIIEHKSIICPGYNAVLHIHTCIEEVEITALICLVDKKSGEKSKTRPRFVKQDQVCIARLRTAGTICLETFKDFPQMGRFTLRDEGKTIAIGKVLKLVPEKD
T7 sequence (Q96SW2 whole entry): as the sequence (Q96SW2 whole entry) above
T7 sequence (Q16531 whole entry partner): as the sequence (Q16531 whole entry partner) above

| Compound | IC50 (MGC803) [nM] | IKZF3 substrate protein remaining % (IKZF3) | IC50 (CCRF-CEM) [nM] | IKZF 1 substrate protein remaining % (IKZF1) | IC50 (Jurkat) [nM] | Weel substrate protein remaining % (WEE1) | IKZF2 substrate protein remaining % (IKZF2) | pIC50 [1] | IC50 (Vcap) [nM] | IC50 (CAL-62) [nM] | CK1a substrate protein remaining % (CK1α) | IC50 (TMD8) [nM] | GSPT1 substrate protein remaining % (GSPT1) | IC50 (SW620) [nM] | IC50 [2] [nM] | IC50 (MM.1R) [nM] | IC50 (SR) [nM] | IC50 (NCI-H1975) [nM] | IC50 [3] [nM] |
| --- | --- | --- | --- | --- | --- | --- | --- | --- | --- | --- | --- | --- | --- | --- | --- | --- | --- | --- | --- |
| O=C1CCC(N2Cc3cc(CN4CCN(c5cccc(Cl)c5Cl)CC4)ccc3C2=O)C(=O)N1 (centres unmarked) [GT-04201, 3-(5-((4-(2,3-dichlorophenyl)piperazin-1-yl)methyl)-1-oxoisoindolin-2-yl)piperidine-2,6-dione] | 10 to 50 | B (80%< substrate protein remaining %≤ 100%) | 1 to 5 | B (80%< substrate protein remaining %≤ 100%) | 1 to 5 | A (0% ≤ substrate protein remaining % ≤ 80%) | A (0% ≤ substrate protein remaining % ≤ 80%) | 5.82 to 6.00 | 5 to 10 | 1 to 5 | A (0% ≤ substrate protein remaining % ≤ 80%) | 10 to 50 | A (0% ≤ substrate protein remaining % ≤ 80%) | 50 to 100 | – | – | – | – | – |
| O=C1CCC(N2Cc3cc(CN4CCN(c5cccc6sccc56)CC4)ccc3C2=O)C(=O)N1 (centres unmarked) [GT-04202, 3-(5-((4-(benzo[b]thiophen-4-yl)piperazin-1-yl)methyl)-1-oxoisoindolin-2-yl)piperidine-2,6-dione] | 10 to 50 | A (0% ≤ substrate protein remaining % ≤ 80%) | 1 to 5 | A (0% ≤ substrate protein remaining % ≤ 80%) | 1 to 5 | A (0% ≤ substrate protein remaining % ≤ 80%) | A (0% ≤ substrate protein remaining % ≤ 80%) | 6.00 to 6.30 | 1 to 5 | 1 to 5 | A (0% ≤ substrate protein remaining % ≤ 80%) | 10 to 50 | A (0% ≤ substrate protein remaining % ≤ 80%) | 1 to 5 | – | – | – | – | – |
| Cc1ccc(Sc2ccccc2N2CCN(Cc3ccc4c(c3)CN(C3CCC(=O)NC3=O)C4=O)CC2)c(C)c1 (centres unmarked) [GT-04203, 3-(5-((4-(2-((2,4-dimethylphenyl)thio)phenyl)piperazin-1-yl)methyl)-1-oxoisoindolin-2-yl)piperidine-2,6-dione] | 100 to 500 | A (0% ≤ substrate protein remaining % ≤ 80%) | 5 to 10 | A (0% ≤ substrate protein remaining % ≤ 80%) | 5 to 10 | A (0% ≤ substrate protein remaining % ≤ 80%) | A (0% ≤ substrate protein remaining % ≤ 80%) | 6.00 to 6.30 | 5 to 10 | 5 to 10 | A (0% ≤ substrate protein remaining % ≤ 80%) | 10 to 50 | A (0% ≤ substrate protein remaining % ≤ 80%) | 10 to 50 | – | – | – | – | – |
| O=C1CCC(N2Cc3cc(CN4CCC(c5noc6cc(F)ccc56)CC4)ccc3C2=O)C(=O)N1 (centres unmarked) [GT-04254, 3-(5-((4-(6-fluorobenzo[d]isoxazol-3-yl)piperidin-1-yl)methyl)-1-oxoisoindolin-2-yl)piperidine-2,6-dione] | 100 to 500 | A (0% ≤ substrate protein remaining % ≤ 80%) | 5 to 10 | A (0% ≤ substrate protein remaining % ≤ 80%) | 10 to 50 | A (0% ≤ substrate protein remaining % ≤ 80%) | A (0% ≤ substrate protein remaining % ≤ 80%) | 6.00 to 6.30 | 10 to 50 | 10 to 50 | A (0% ≤ substrate protein remaining % ≤ 80%) | 100 to 500 | A (0% ≤ substrate protein remaining % ≤ 80%) | 10 to 50 | – | – | – | – | – |
| O=C1CCC(N2Cc3cc(CN4CCC(c5ccccc5Cl)CC4)ccc3C2=O)C(=O)N1 (centres unmarked) [GT-04468, 3-(5-((4-(2-chlorophenyl)piperidin-1-yl)methyl)-1-oxoisoindolin-2-yl)piperidine-2,6-dione] | 500 to 1000 | A (0% ≤ substrate protein remaining % ≤ 80%) | 5 to 10 | A (0% ≤ substrate protein remaining % ≤ 80%) | 5 to 10 | A (0% ≤ substrate protein remaining % ≤ 80%) | A (0% ≤ substrate protein remaining % ≤ 80%) | 6.00 to 6.30 | 50 to 100 | 10 to 50 | A (0% ≤ substrate protein remaining % ≤ 80%) | – | A (0% ≤ substrate protein remaining % ≤ 80%) | 100 to 500 | 5 to 10 | 10 to 50 | 500 to 1000 | 100 to 500 | – |
| O=C1CCC(N2Cc3cc(CN4CCC(c5ccccc5F)CC4)ccc3C2=O)C(=O)N1 (centres unmarked) [GT-04470, 3-(5-((4-(2-fluorophenyl)piperidin-1-yl)methyl)-1-oxoisoindolin-2-yl)piperidine-2,6-dione] | 100 to 500 | A (0% ≤ substrate protein remaining % ≤ 80%) | 10 to 50 | A (0% ≤ substrate protein remaining % ≤ 80%) | 5 to 10 | A (0% ≤ substrate protein remaining % ≤ 80%) | A (0% ≤ substrate protein remaining % ≤ 80%) | 6.00 to 6.30 | 50 to 100 | 10 to 50 | A (0% ≤ substrate protein remaining % ≤ 80%) | – | A (0% ≤ substrate protein remaining % ≤ 80%) | 100 to 500 | 10 to 50 | 10 to 50 | 500 to 1000 | 500 to 1000 | – |
| Cc1ccsc1C1=CCN(Cc2ccc3c(c2)CN(C2CCC(=O)NC2=O)C3=O)CC1 (centres unmarked) [GT-04495, 3-(5-((4-(3-methylthiophen-2-yl)-3,6-dihydropyridin-1(2H)-yl)methyl)-1-oxoisoindolin-2-yl)piperidine-2,6-dione] | 10 to 50 | B (80%< substrate protein remaining %≤ 100%) | < 1 | B (80%< substrate protein remaining %≤ 100%) | < 1 | B (80%< substrate protein remaining %≤ 100%) | A (0% ≤ substrate protein remaining % ≤ 80%) | > 6.30 | 1 to 5 | < 1 | A (0% ≤ substrate protein remaining % ≤ 80%) | – | A (0% ≤ substrate protein remaining % ≤ 80%) | 1 to 5 | < 1 | – | 1 to 5 | 1 to 5 | 1 to 5 |
